# Assay results as given in patent US20040093079A1, “Compositions and methods for the reduction of post-angioplasty stenosis” (priority 2001, published 2004).
# Legend:
# [1] = biological target: T1, soluble guanylyl cyclase (sGC) (Homo sapiens, UniProt Q02108+Q02153); conditions: cited from earlier work
# T1 sequence (Q02153 1-619): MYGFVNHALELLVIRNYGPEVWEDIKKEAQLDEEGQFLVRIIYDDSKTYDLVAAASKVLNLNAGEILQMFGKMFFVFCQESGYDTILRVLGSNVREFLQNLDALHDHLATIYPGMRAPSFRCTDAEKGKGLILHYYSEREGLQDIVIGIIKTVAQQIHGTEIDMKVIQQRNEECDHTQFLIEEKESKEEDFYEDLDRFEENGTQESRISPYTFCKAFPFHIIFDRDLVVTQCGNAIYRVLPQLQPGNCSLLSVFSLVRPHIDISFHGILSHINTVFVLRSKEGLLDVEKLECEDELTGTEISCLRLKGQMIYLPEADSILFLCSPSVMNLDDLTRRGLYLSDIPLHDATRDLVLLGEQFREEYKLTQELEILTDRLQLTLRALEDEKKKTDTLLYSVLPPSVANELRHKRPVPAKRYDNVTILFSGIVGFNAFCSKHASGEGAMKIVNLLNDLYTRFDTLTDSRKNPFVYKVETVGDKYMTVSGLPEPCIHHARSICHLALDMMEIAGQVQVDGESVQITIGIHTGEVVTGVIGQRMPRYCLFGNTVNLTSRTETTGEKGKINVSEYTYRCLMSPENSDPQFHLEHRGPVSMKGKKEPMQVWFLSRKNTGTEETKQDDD
# T1 sequence (Q02108 1-690): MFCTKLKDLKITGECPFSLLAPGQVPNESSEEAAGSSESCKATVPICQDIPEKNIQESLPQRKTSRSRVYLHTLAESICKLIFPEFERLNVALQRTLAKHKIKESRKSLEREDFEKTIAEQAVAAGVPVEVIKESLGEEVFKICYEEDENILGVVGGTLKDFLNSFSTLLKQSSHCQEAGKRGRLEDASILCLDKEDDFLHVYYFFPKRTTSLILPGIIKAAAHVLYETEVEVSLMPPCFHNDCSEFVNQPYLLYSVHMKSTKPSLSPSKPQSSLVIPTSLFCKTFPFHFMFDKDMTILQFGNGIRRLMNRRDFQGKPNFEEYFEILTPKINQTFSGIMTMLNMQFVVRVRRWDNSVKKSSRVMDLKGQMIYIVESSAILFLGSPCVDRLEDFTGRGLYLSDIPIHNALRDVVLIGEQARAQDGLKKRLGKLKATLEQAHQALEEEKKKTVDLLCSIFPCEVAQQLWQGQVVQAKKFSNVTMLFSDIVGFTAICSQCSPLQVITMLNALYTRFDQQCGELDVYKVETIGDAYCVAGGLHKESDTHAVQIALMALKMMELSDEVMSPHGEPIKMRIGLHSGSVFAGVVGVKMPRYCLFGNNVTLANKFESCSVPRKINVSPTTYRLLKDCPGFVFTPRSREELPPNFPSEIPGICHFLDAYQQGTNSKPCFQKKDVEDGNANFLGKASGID
# [2] = test system: vascular HO-1; conditions: pharmacologic administration of hemin; cited from earlier work
# [3] = test system: vessel wall cGMP (sGC/cGMP system) in left carotid artery; assay: Cyclic GMP levels by RIA in balloon injured left carotid artery sections after perivascular YC-1; type: in vivo, rat
# Protocol: Cyclic GMP levels were measured in vessel samples with a competitive RIA using ^125I-labeled cGMP, following instructions from the manufacturer (Amersham Pharmacia Biotech, Piscataway, N.J.). […]
# [4] = test system: balloon injured left carotid artery (neointima formation); assay: Morphometric and histologic analysis of balloon-injured left carotid artery 2 weeks post-injury; type: in vivo, rat
# Protocol: The established rat carotid artery (CA) provided the model of balloon angioplasty to illustrate the in vivo arterial response to injury. Male Sprague Dawley rats (Harlan, Indianapolis, Ind.) weighing an average 497 g were anesthetized with a combination anesthetic (ketamine, zylazine, and acepromazine; 0.5-0.7 ml/kg, IM; VetMed Drugs, Houston, Tex.), and the left CA and external carotid branch exposed.
# A Fogarty 2F embolectomy catheter (Baxter Healthcare Corp., Irvine, Calif.) was introduced into the external carotid branch through an arteriotomy incision and advanced to the aortic arch. The balloon was inflated and withdrawn three times with rotation. The catheter was removed and the external carotid ligated. The overlying tissue was sutured and the skin closed with rodent wound clips.
# In one embodiment, the entire length of the left CA was balloon injured, immediately followed by perivascular application of YC-1 (1 mg) on the distal section. Sites where tissues were taken for “distal+YC-1” and “proximal−YC-1” are indicated. The right CA served as an uninjured control. EC=external carotid branch; IC=internal carotid branch.
# Immediately following balloon injury, at least about 200 μl of a 25% solution of a copolymer gel (Pluronic F-127; BASF Corporation, Mount Olive, N.J.) plus YC-1 (at least about 1 mg in 50 μl DMSO; Calbiochem, La Jolla, Calif.) was administered topically to the exposed adventitia of the distal CA section. […] In all experiments, the entire length of the left CA was injured (avg. 22 mm), while the contralateral right CA served as an unmanipulated untreated control. Only the distal half of the injured left CA was exposed during the surgery, and this section (approximately 11 mm) was treated with YC-1 (or empty gel) while the proximal half remained untreated. A cohort of animals that was balloon-injured and not exposed to any gel or other treatment served as a separate control group.
# Acute studies illustrating enzyme and cGMP induction used freshly obtained tissues that were removed from the sacrificed animal and immediately snap-frozen. In one embodiment, two week studies were performed and morphologic remodeling of the vessel wall was monitored in tissue from animals that were perfusion-fixed transcardially using warmed PBS followed by 10% buffered formalin phosphate. Tissues were fixed, processed by standard procedures, and paraffin-embedded, procedures that are well-known to those of ordinary skill in the art of histology. Five micron sections were cut using a rotary microtome and placed on pre-treated slides. For Verhoff's elastic tissue staining, slides were deparaffinized and stained with Verhoff's solution of alcoholic hematoxylin, ferric chloride, and potassium iodine. Slides differentiated with ferric chloride and counterstained with Van Gieson's solution containing 1% acid fuchsin and picric acid.
# Microscopic quantitation of vessel dimensions was performed using Zeiss Image 3.0 (Media Cybernetics) and Adobe Photoshop 4.0™ (Adobe Systems) software systems linked through a CCD color camera (Leaf Microlumina, Leaf Systems, USA) to a Zeiss Axioskop 50 light microscope (Carl Zeiss, Germany). Images were measured for perimeters and areas corresponding to internal and external elastic laminae and lumen. Numerical transformations provided data for neointimal and medial wall areas and vessel diameters.
# FIG. 6 depicts representative morphometric analyses for (a) neointimal cross-sectional area, (b) neointimal area/medial wall area ratio, (c) neointimal thickness and (d) medial wall area [(a), (b) and (c) statistically significant with p<0.001; (d) statistically significant with p<0.05]. Data for balloon injured left CA distal sections exposed to YC-1 (“distal+YC-1”) and for balloon injured left CA proximal sections not exposed to YC-1 (“proximal−YC-1”) are shown. Values represent mean±SE. For all parameters n=6 animals in the control group and n=9 animals in the YC-1 treated group.
compound,measurement,setting,value
"[N]=O [NO, nitric oxide]",activation of the purified enzyme (sGC),[1],400 fold
hemin,vascular HO-1 expression,[2],upregulated vascular HO-1
"[C-]#[O+] [CO, carbon monoxide]",activation of the purified enzyme (sGC),[1],4- to 6 fold
"OCc1ccc(-c2nn(Cc3ccccc3)c3ccccc23)o1 [YC-1, 3-(5′-hydroxymethyl-2′-furyl)-1-benzyl indazole]",YC-1 induced alterations in cGMP,[3]; CA sections from a separate group of uninjured rats (data not shown),do not show YC-1 induced alterations in cGMP
same,cGMP content,"[3]; injured CA distal sections exposed to YC-1 (1 mg in gel), 24 hours post-injury, mean±SE, n=5, proximal unexposed sections 0.64±0.11, p=0.012",1.23±0.13
same,stimulation of CO-induced sGC (specific activity),[1],approximately 400 fold
same,histology of elastin-stained cross-section: adventitia and collagen staining,"[4]; FIG. 5 panel (B), distal section treated with 1 mg YC-1, 2 weeks post-injury",decreased adventitia and reduced collagen staining
same,lengths of internal elastic laminae and external elastic laminae,"[4]; between and among all treatment groups, 2 weeks post-injury",No differences were detected
same,"neointimal cross-sectional area, attenuation","[4]; distal YC-1 (1 mg) sections vs proximal unexposed sections of same vessel, 2 weeks post-injury, p<0.001, n=9",−74%
same,"neointimal thickness, attenuation","[4]; distal YC-1 (1 mg) sections vs proximal unexposed sections, 2 weeks post-injury, p<0.001, n=9",-76%
same,"medial wall cross-sectional area, diminution","[4]; distal YC-1 (1 mg) sections vs proximal unexposed sections, 2 weeks post-injury, p<0.05, n=9",−12%
same,"neointimal area/medial wall area ratio, attenuation","[4]; distal YC-1 (1 mg) sections vs proximal unexposed sections, 2 weeks post-injury, p=0.001, n=9",−72%
